Test results as given in US6384030B1, “Water soluble azoles as broad-spectrum antifungals” (priority 1998, dated 2002).
Converted amounts (≈) assume the structure as drawn.

What was measured:
[1] = Saksena et al., Bioorganic & Medicinal Chemistry Letters (1995), 5(2), 127-132; cited from earlier work
[2] = Water solubility (example D1); assay type: physicochemical; conditions: aqueous buffer, thermodynamic from solid; water buffered with 0.1 M citric acid and 0.2 M Na2HPO4 (pH =4); shaken 1 day at room temperature; UV
[3] = tested on: other fungi (3 dermatophyte isolates, Aspergillus migatus, Cryptococcus neoformans, Sporothrix schenckii); experiment: Fungal susceptibility, Panel 2 (example C1); assay type: cell-based; conditions: Panel 2: 6 other fungi (3 dermatophytes, Aspergillus, Cryptococcus neoformans, Sporothrix schenckii); CYG broth; growth below 35% of control
Candida spp. [4] = experiment: Fungal susceptibility, Panel 1 (example C1); assay type: cell-based; conditions: Panel 1: 8 isolates of Candida spp. incl. an azole-resistant C. albicans strain; CYG broth; 37° C. for 48 hours; growth below 35% of control; read-out: geometric mean minimum inhibitory concentration-value (MIC)
Candida spp. [5] = experiment: Minimum fungicidal concentration (example C2); assay type: cell-based; conditions: 24 Candida isolates; RPMI 1640 buffered with MOPS, 2% glucose; subculture on Sabouraud glucose agar; read-out: Geometric mean minimum fungicidal concentrations
Method: (§1) A panel of 24 Candida isolates, 8 isolates of Aspergillus spp., 8 dermatophytes, 10 Zygomycetes, 10 Fusarium spp., 2 Cryptococcus neoformans and 8 dematiaceous hyphomycetes was used.
(§2) Inocula were prepared as in example C1 but the culture medium used in this test was RPMI 1640 buffered with MOPS, with 2% glucose (Odds, F. C., Antimicrobial Agents and Chemotherapy, 1995, 39, 2051-2060). Test compounds were added to the medium from DMSO solutions to give final concentrations in the series 10, 3.2, 1.0, 0.32, 0.10, 0.032, 0.010,0.0032 and 0.0010 μM. Incubation times and temperatures were as in example C1. Once the microdilution plates had been read for growth turbidity spectrophotometrically, samples of material were removed from the test cultures to inoculate 10 μl volumes on plates of Sabouraud glucose agar. The plates were incubated at 37° C. for 48 hours for yeasts or at other times and temperatures for other species. Geometric mean minimum fungicidal concentrations in μM which were determined as the lowest concentrations of the test compound that completely or substantially eliminated reappearance of fungal growth on the Sabouraud plates

Zygomycetes = experiment: Minimum fungicidal concentration (example C2); assay type: cell-based; conditions: 10 Zygomycetes; RPMI 1640 buffered with MOPS, 2% glucose; subculture on Sabouraud glucose agar; read-out: Geometric mean minimum fungicidal concentrations
Method: as §1, §2

Fusarium spp. = experiment: Minimum fungicidal concentration (example C2); assay type: cell-based; conditions: 10 Fusarium spp.; RPMI 1640 buffered with MOPS, 2% glucose; subculture on Sabouraud glucose agar; read-out: Geometric mean minimum fungicidal concentrations
Method: as §1, §2

SMILES | activity as antifungal compared to SCH 51048 [1] | solubility at 1 day [2] | MIC [3] | MIC (Candida spp. [4]) | MFC (Candida spp. [5]) | MFC (Zygomycetes) | MFC (Fusarium spp.)
CN(C)CCn1ncn(-c2ccc(N3CCN(c4ccc(OC[C@@H]5CO[C@@](Cn6cncn6)(c6ccc(F)cc6F)C5)cc4)CC3)cc2)c1=O (relative stereo) [(3R-cis)-4-[4-[4-[4-[[5-(2,4-difluorophenyl)tetrahydro-5-(1H-1,2,4-triazol-1-ylmethyl)-3-furanyl]methoxy]phenyl]-1-piperazinyl]phenyl]-2-[2-(dimethylamino)ethyl]-2,4-dihydro-3H-1,2,4-triazol-3-one] | profoundly less active | – | – | – | – | – | –
C[C@@H](N[C@H](C)[C@H](C)n1ncn(-c2ccc(N3CCN(c4ccc(OC[C@@H]5CO[C@@](Cn6cncn6)(c6ccc(F)cc6F)O5)cc4)CC3)cc2)c1=O)c1ccccc1 (relative stereo) [Compound 86, [2S-[2α,4α[(R*,S*)(S*)]]]-4-[4-[4-[4-[[2-(2,4-difluoropheny)-2-(1H-1,2,4-triazol-1-yl-methyl)-1,3-dioxolan-4-yl]methoxy]phenyl]-1-piperazinyl]phenyl]-2,4-dihydro-2-[2-[(1-phenylethyl)amino]-1-methylpropyl]-3H-1,2,4-triazol-3-one] | – | > 100 µg/mL | 0.01 to 1 µM (≈ 0.00792 to 0.792 µg/mL) | 0.01 to 1 µM (≈ 0.00792 to 0.792 µg/mL) | 1 to 10 µM (≈ 0.792 to 7.92 µg/mL) | 1 to 10 µM (≈ 0.792 to 7.92 µg/mL) | 1 to 10 µM (≈ 0.792 to 7.92 µg/mL)
